± gives the uncertainty stated by the source.
Experiment: xn = mol fraction of the nth substance listed

CCCC[P+](CCCC)(CCCC)CCCC.[Br-] + O
Conditions	viscosity [mPa·s]
308.15 K, 101 kPa, x1 = 0.08254	6.085 ± 0.2

CC[N+](CC)(CC)CC.[Br-] + O
298.15 K, 101 kPa
Conditions	viscosity [mPa·s]
x1 = 0.0009	0.8894
x1 = 0.0089	1.059
x1 = 0.0177	1.314
x1 = 0.0348	2.397

CNC(C)=O + O
viscosity [mPa·s]
Conditions	303.18 K	308.15 K	313.15 K	318.15 K
101 kPa, x2 = 0.0402	3.71 ± 0.03	–	–	–
101 kPa, x2 = 0.1032	3.81 ± 0.03	–	–	–
101 kPa, x2 = 0.2124	4.02 ± 0.03	–	–	–
101 kPa, x2 = 0.3814	4.33 ± 0.03	–	–	–
101 kPa, x2 = 0.455	4.42 ± 0.03	–	–	–
101 kPa, x2 = 0.5528	4.37 ± 0.04	–	–	–
101 kPa, x2 = 0.7092	3.7 ± 0.03	–	–	–
101 kPa, x2 = 0.8121	2.89 ± 0.03	–	–	–
101.33 kPa, x1 = 0.0301	–	0.997 ± 0.006	0.893 ± 0.006	0.812 ± 0.005
101.33 kPa, x1 = 0.06	–	1.293 ± 0.008	1.137 ± 0.007	1.026 ± 0.006
101.33 kPa, x1 = 0.1002	–	1.693 ± 0.01	1.465 ± 0.009	1.301 ± 0.008
101.33 kPa, x1 = 0.15	–	2.24 ± 0.013	1.902 ± 0.011	1.651 ± 0.01
101.33 kPa, x1 = 0.1999	–	2.766 ± 0.016	2.326 ± 0.014	2.001 ± 0.012
101.33 kPa, x1 = 0.245	–	3.108 ± 0.018	2.626 ± 0.016	2.257 ± 0.013
101.33 kPa, x1 = 0.3006	–	3.402 ± 0.02	2.882 ± 0.017	2.483 ± 0.015
101.33 kPa, x1 = 0.3502	–	3.597 ± 0.021	3.063 ± 0.018	2.646 ± 0.016
101.33 kPa, x1 = 0.4012	–	3.748 ± 0.022	3.198 ± 0.019	2.769 ± 0.017
101.33 kPa, x1 = 0.4501	–	3.852 ± 0.023	3.3 ± 0.02	2.859 ± 0.018
101.33 kPa, x1 = 0.5	–	3.921 ± 0.024	3.37 ± 0.021	2.914 ± 0.018
101.33 kPa, x1 = 0.5502	–	3.942 ± 0.025	3.398 ± 0.021	2.938 ± 0.019
101.33 kPa, x1 = 0.6018	–	3.906 ± 0.025	3.382 ± 0.022	2.928 ± 0.019
101.33 kPa, x1 = 0.655	–	3.825 ± 0.025	3.327 ± 0.022	2.894 ± 0.019
101.33 kPa, x1 = 0.7019	–	3.765 ± 0.025	3.281 ± 0.022	2.869 ± 0.019
101.33 kPa, x1 = 0.7551	–	3.688 ± 0.025	3.226 ± 0.022	2.832 ± 0.019
101.33 kPa, x1 = 0.807	–	3.606 ± 0.025	3.167 ± 0.022	2.797 ± 0.02
101.33 kPa, x1 = 0.845	–	3.554 ± 0.025	3.13 ± 0.022	2.768 ± 0.02
101.33 kPa, x1 = 0.9015	–	3.495 ± 0.025	3.077 ± 0.022	2.733 ± 0.02
101.33 kPa, x1 = 0.95	–	3.44 ± 0.025	3.044 ± 0.022	2.703 ± 0.02

NCC(=O)NCC(=O)NCC(=O)O + O
viscosity [mPa·s]
Conditions	298.15 K	303.15 K	308.15 K	313.15 K	318.15 K
100 kPa, x1 = 0.0008998	0.9044 ± 0.008	0.8108 ± 0.0073	0.7322 ± 0.0067	0.6656 ± 0.0062	0.6079 ± 0.0057
100 kPa, x1 = 0.001798	0.9128 ± 0.0081	0.8191 ± 0.0073	0.7406 ± 0.0067	0.6738 ± 0.0062	0.6157 ± 0.0058
100 kPa, x1 = 0.002695	0.9213 ± 0.0081	0.8272 ± 0.0074	0.7481 ± 0.0068	0.6812 ± 0.0063	0.6229 ± 0.0058
100 kPa, x1 = 0.00359	0.9287 ± 0.0082	0.8347 ± 0.0075	0.7552 ± 0.0069	0.6885 ± 0.0063	0.6298 ± 0.0059
100 kPa, x1 = 0.004483	0.9364 ± 0.0083	0.8418 ± 0.0076	0.7623 ± 0.0069	0.6953 ± 0.0064	0.6366 ± 0.006
100 kPa, x1 = 0.005375	0.9426 ± 0.0084	0.8482 ± 0.0076	0.7691 ± 0.007	0.7018 ± 0.0065	0.6429 ± 0.006
100 kPa, x1 = 0.006266	0.95 ± 0.0085	0.8548 ± 0.0077	0.7757 ± 0.0071	0.7082 ± 0.0066	0.6492 ± 0.0061
100 kPa, x1 = 0.007154	0.9566 ± 0.0085	0.8615 ± 0.0078	0.7818 ± 0.0072	0.7147 ± 0.0067	0.6552 ± 0.0062
101 kPa, x1 = 0.000199	0.8947 ± 0.019	–	0.7233 ± 0.018	–	0.5994 ± 0.016
101 kPa, x1 = 0.000396	0.8988 ± 0.019	–	0.7269 ± 0.018	–	0.6027 ± 0.016
101 kPa, x1 = 0.0006084	0.9032 ± 0.02	–	0.7307 ± 0.018	–	0.6058 ± 0.016
101 kPa, x1 = 0.0007854	0.9075 ± 0.02	–	0.7343 ± 0.018	–	0.6087 ± 0.016
101 kPa, x1 = 0.001106	0.9149 ± 0.02	–	0.7403 ± 0.018	–	0.6138 ± 0.016
101 kPa, x1 = 0.001839	0.9325 ± 0.02	–	0.7547 ± 0.018	–	0.6255 ± 0.017
101 kPa, x1 = 0.002563	0.9511 ± 0.02	–	0.7694 ± 0.018	–	0.637 ± 0.017
101 kPa, x1 = 0.003356	0.9729 ± 0.02	–	0.7857 ± 0.018	–	0.6495 ± 0.017
101 kPa, x1 = 0.0046	1.01 ± 0.021	–	0.8123 ± 0.019	–	0.6694 ± 0.017

O=S(=O)([O-])c1ccc(Cl)cc1.[Na+] + O
viscosity [mPa·s], 101 kPa
Conditions	x1 = 9e-05	x1 = 0.00018	x1 = 0.0009	x1 = 0.0018	x1 = 0.00448	x1 = 0.00893	x1 = 0.0133	x1 = 0.0177
298.15 K	0.899 ± 0.009	0.9 ± 0.009	0.916 ± 0.009	0.939 ± 0.01	1 ± 0.01	1.103 ± 0.011	1.219 ± 0.013	–
318.15 K	0.598 ± 0.006	0.599 ± 0.006	0.608 ± 0.006	0.623 ± 0.006	0.659 ± 0.006	0.723 ± 0.007	0.793 ± 0.008	0.869 ± 0.008

C=C(C)C(=O)OCCO + O=C1CCCCC1
viscosity [mPa·s], 101 kPa
Conditions	x2 = 0.1	x2 = 0.2	x2 = 0.3	x2 = 0.4	x2 = 0.5	x2 = 0.6	x2 = 0.6999	x2 = 0.8	x2 = 0.9
298.15 K	5.035 ± 0.23	4.22 ± 0.19	3.579 ± 0.17	3.213 ± 0.15	2.928 ± 0.14	2.661 ± 0.12	2.319 ± 0.11	2.089 ± 0.098	2.06 ± 0.096
308.15 K	3.747 ± 0.17	3.184 ± 0.15	2.768 ± 0.13	2.512 ± 0.12	2.282 ± 0.11	2.045 ± 0.096	1.856 ± 0.088	1.707 ± 0.081	1.695 ± 0.08
318.15 K	2.881 ± 0.14	2.474 ± 0.12	2.2 ± 0.1	2.012 ± 0.095	1.853 ± 0.088	1.678 ± 0.08	1.54 ± 0.074	1.439 ± 0.069	1.421 ± 0.068

Source: the CheMixHub viscosity set
